The record followed here is PubChem BioAssay (NCI).

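Growth conditions: 96-well plates. Treatment: test compound, 48 hours, 5 concentrations. Analysis: linear interpolation between bracketing concentrations; unreached endpoints set to highest concentration. Abbreviation: GI50, concentration required for 50% inhibition of growth. At the TGI there is no net growth.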

Test systems include MOLT-4 leukemia; NCI-H460 lung; NCI-H226 lung; SK-MEL-5 melanoma; KM12 colon; OVCAR-8 ovarian; NCI-H522 lung; CAKI-1 renal; HT29 colon; RXF 393 renal.
Holding throughout (assay): inhibition of tumour cell growth, NCI panel, 48 h

Turning to `O=C1C(=Cc2ccc(Cl)c(Cl)c2)C([O-])=C([P+](c2ccccc2)(c2ccccc2)c2ccccc2)C([O-])=C1[P+](c1ccccc1)(c1ccccc1)c1ccccc1`, the TGI stood at 3.84 µM with MOLT-4 leukemia; 10.9 µM in the experiment with NCI-H460 lung; 7.14 µM in the experiment on NCI-H226 lung; 5.24 µM in the experiment on SK-MEL-5 melanoma; 4.66 µM in the experiment on KM12 colon; 6.7 µM with OVCAR-8 ovarian. Also, the TGI in the experiment with NCI-H522 lung worked out at 4.1 µM; with CAKI-1 renal it was 6.78 µM; in the experiment with HT29 colon it was 4.05 µM; in the experiment with RXF 393 renal it was 3.35 µM.
Take `CN(Cc1cc(Cl)c(Cl)cc1NC(=O)CN)[C@H]1CCCC[C@@H]1N1CCCC1`: the TGI with MOLT-4 leukemia was greater than 100 µM; in the experiment with NCI-H460 lung, 57.8 µM; in the experiment with NCI-H226 lung, greater than 100 µM; in the experiment on SK-MEL-5 melanoma it was 32.1 µM; in the experiment on KM12 colon, greater than 100 µM; with OVCAR-8 ovarian it was greater than 100 µM. Moreover, the TGI in the experiment on NCI-H522 lung was 40.4 µM; in the experiment with CAKI-1 renal it was greater than 100 µM; in the experiment with HT29 colon it was 47.9 µM; in the experiment on RXF 393 renal, greater than 100 µM.
As for `CC(=O)/C(=C/N1CCNC1=S)C(=O)Nc1ccccc1C`, the TGI with MOLT-4 leukemia, with NCI-H460 lung, with NCI-H226 lung, in the experiment on SK-MEL-5 melanoma, in the experiment with KM12 colon and with OVCAR-8 ovarian was greater than 100 µM in each case. Also, the TGI with NCI-H522 lung, with CAKI-1 renal, in the experiment on HT29 colon and in the experiment with RXF 393 renal was greater than 100 µM each time.
`NC1CC=C(COC(=O)C(O)(c2ccccc2)C2CC2)CC1` (stereo unspecified): the TGI in the experiment with MOLT-4 leukemia, with NCI-H226 lung, with SK-MEL-5 melanoma, in the experiment with KM12 colon, in the experiment on OVCAR-8 ovarian and with NCI-H522 lung was greater than 100 µM throughout. Besides, the TGI with CAKI-1 renal, in the experiment with HT29 colon and with RXF 393 renal was greater than 100 µM each time.
On to `S=c1[nH]c2ccc(I)cc2c(=S)n1Cc1ccccc1`, for which the TGI in the experiment on MOLT-4 leukemia is 13.4 µM; in the experiment on NCI-H460 lung it was 16.3 µM; with NCI-H226 lung, greater than 100 µM; in the experiment on SK-MEL-5 melanoma, 13.2 µM; in the experiment with KM12 colon it was 50.7 µM; in the experiment on OVCAR-8 ovarian, 53.6 µM. The TGI with NCI-H522 lung is 16.5 µM; with CAKI-1 renal, greater than 100 µM; with HT29 colon, 38.9 µM; with RXF 393 renal, 9.21 µM.
For the compound `N#CC(C#N)=C1C(=O)NC(N)=C1C#N`, the TGI in the experiment with MOLT-4 leukemia, in the experiment on NCI-H460 lung, in the experiment on NCI-H226 lung, in the experiment on SK-MEL-5 melanoma, in the experiment on KM12 colon and in the experiment on OVCAR-8 ovarian was greater than 100 µM in each case. The TGI in the experiment on NCI-H522 lung, in the experiment with CAKI-1 renal, in the experiment on HT29 colon and in the experiment on RXF 393 renal was greater than 100 µM in each case.
Consider `COc1ccc(N2NC(c3ccccc3)(c3ccccc3)C(C)C2=O)cc1` (stereo unspecified), for which the TGI in the experiment on MOLT-4 leukemia, in the experiment on NCI-H460 lung, with NCI-H226 lung, in the experiment on SK-MEL-5 melanoma, in the experiment on KM12 colon and in the experiment on OVCAR-8 ovarian was greater than 100 µM throughout. For the same compound, the TGI with NCI-H522 lung, in the experiment with CAKI-1 renal, in the experiment on HT29 colon and in the experiment on RXF 393 renal was greater than 100 µM throughout.
As for `CCCCCCCCCCCCCC(=O)N(CCCCCCCCC)CC(O)C(O)C(OC1OC(CO)C(O)C(O)C1O)C(O)CO` (stereo unspecified), the TGI was 44.9 µM with MOLT-4 leukemia; 39.1 µM with NCI-H460 lung; 34.3 µM with NCI-H226 lung; 34.7 µM in the experiment with SK-MEL-5 melanoma; 37.1 µM in the experiment with KM12 colon; 39.3 µM with OVCAR-8 ovarian. Besides, the TGI in the experiment with NCI-H522 lung was 44.4 µM; in the experiment with CAKI-1 renal, 30.6 µM; with HT29 colon, 33.3 µM; in the experiment on RXF 393 renal, 54.9 µM.
Turning to `CCOc1ccc2c(c1)c(=O)c1c(NCCN(CC)CC)ccc3nnn2c31`, the TGI with MOLT-4 leukemia was greater than 59.9 µM; with NCI-H460 lung, greater than 57.8 µM; with NCI-H226 lung it was greater than 100 µM; in the experiment on SK-MEL-5 melanoma it was 31.1 µM; in the experiment with KM12 colon, 37.1 µM; with OVCAR-8 ovarian, 65.8 µM. In addition, the TGI with NCI-H522 lung came out at 27.8 µM; with CAKI-1 renal, 41.6 µM; with HT29 colon, 32 µM; in the experiment with RXF 393 renal it was 25.5 µM.
As to `CC1=C(C)C(=O)C(C2=CC(=O)C=CC2=O)=C(C2=CC(=O)C=CC2=O)C1=O`, the TGI in the experiment with MOLT-4 leukemia was 44.8 µM; in the experiment on NCI-H460 lung, greater than 100 µM; in the experiment on NCI-H226 lung, greater than 100 µM; in the experiment with SK-MEL-5 melanoma, 46.2 µM; in the experiment with KM12 colon, greater than 100 µM; with OVCAR-8 ovarian, greater than 87.7 µM. Also, the TGI in the experiment on NCI-H522 lung is 64.7 µM; with CAKI-1 renal, greater than 56.6 µM; in the experiment with HT29 colon, greater than 100 µM; with RXF 393 renal, greater than 100 µM.
Turning to `O=c1[nH]c(=S)c2cc3c(=S)[nH]c(=O)n(CCO)c3nc2n1CCO`, the TGI with MOLT-4 leukemia, in the experiment with NCI-H460 lung, with NCI-H226 lung, with SK-MEL-5 melanoma, in the experiment with KM12 colon and in the experiment with OVCAR-8 ovarian was greater than 100 µM each time. In addition, the TGI in the experiment on NCI-H522 lung, with CAKI-1 renal and in the experiment with RXF 393 renal was greater than 100 µM in each case.
With `CCOC(=O)/C=C(\C(=O)OCC)n1ccc(=O)[nH]c1=O`, the TGI was 12.4 µM in the experiment with MOLT-4 leukemia; 52.2 µM in the experiment on NCI-H460 lung; greater than 39.1 µM in the experiment with NCI-H226 lung; greater than 56.7 µM with SK-MEL-5 melanoma; 35.2 µM in the experiment with KM12 colon; greater than 53.4 µM with OVCAR-8 ovarian. Also, the TGI is 2.12 µM with NCI-H522 lung, 3.52 µM in the experiment with CAKI-1 renal, 31 µM in the experiment with HT29 colon and 24.6 µM with RXF 393 renal.
For `O=[N+]([O-])C(Cl)=C/C(=C(\Cl)SCc1ccccc1)[N+](=O)[O-]`, the TGI is 46.9 µM with MOLT-4 leukemia; greater than 100 µM with NCI-H460 lung; 75.9 µM with NCI-H226 lung; 47.3 µM with SK-MEL-5 melanoma; greater than 100 µM in the experiment with KM12 colon; 59.9 µM in the experiment with OVCAR-8 ovarian. In addition, the TGI in the experiment on NCI-H522 lung was found to be 46.2 µM; in the experiment with CAKI-1 renal it was 34.2 µM; in the experiment with HT29 colon, 68.6 µM; in the experiment on RXF 393 renal it was 26.3 µM.
For `OC1C[C@H](c2ccccc2)C2(C(O)c3ccccc3C2O)[C@@H](c2ccccc2)C1` (stereo partly specified), the TGI in the experiment with MOLT-4 leukemia, in the experiment with NCI-H460 lung, in the experiment on NCI-H226 lung, in the experiment with SK-MEL-5 melanoma, in the experiment with KM12 colon and with OVCAR-8 ovarian was greater than 100 µM throughout. In addition, the TGI with NCI-H522 lung, in the experiment with CAKI-1 renal, with HT29 colon and in the experiment on RXF 393 renal was greater than 100 µM throughout.
`O=c1ccc2nc(-c3ccccn3)nn(-c3ccccc3)c-2c1`: the GI50 in the experiment with NCI-H460 lung was 15.5 µM; in the experiment on NCI-H226 lung, 3.2 µM; in the experiment on SK-MEL-5 melanoma, 2.3 µM; in the experiment on KM12 colon, 14.5 µM; in the experiment on OVCAR-8 ovarian, 3.1 µM; in the experiment on NCI-H522 lung it was 1.49 µM. Also, the GI50 in the experiment with CAKI-1 renal was 1.49 µM; with HT29 colon, 2.85 µM; in the experiment on RXF 393 renal, 1.6 µM. Besides, the TGI in the experiment on NCI-H460 lung was 32.8 µM; in the experiment with NCI-H226 lung it was 11.9 µM; in the experiment on SK-MEL-5 melanoma, 5.53 µM; with KM12 colon, 28.9 µM; in the experiment on OVCAR-8 ovarian, greater than 100 µM; with NCI-H522 lung, 3.09 µM. The TGI in the experiment with CAKI-1 renal was determined as 2.84 µM; in the experiment with HT29 colon, 8.85 µM; in the experiment on RXF 393 renal, 3.01 µM.
With `C[N+](C)(CCNC(=O)c1cccc2cc3ccccc3nc12)Cc1ccc([N+](=O)[O-])s1`, the TGI in the experiment on MOLT-4 leukemia, with NCI-H226 lung, in the experiment on SK-MEL-5 melanoma, in the experiment with KM12 colon, in the experiment on OVCAR-8 ovarian and with NCI-H522 lung was greater than 25 µM each time. Besides, the TGI in the experiment with CAKI-1 renal, with HT29 colon and in the experiment on RXF 393 renal was greater than 25 µM in each case.
Consider `Oc1ccc(Cl)cc1C1=NC(/N=C\c2ccccc2)=NC(c2ccccc2)C1` (stereo unspecified), for which the TGI in the experiment with MOLT-4 leukemia was greater than 100 µM; with NCI-H226 lung, greater than 100 µM; with SK-MEL-5 melanoma, 61.2 µM; with KM12 colon it was greater than 100 µM; in the experiment with OVCAR-8 ovarian it was greater than 100 µM; with NCI-H522 lung, greater than 100 µM. The values for the TGI in the experiment on CAKI-1 renal, with HT29 colon and in the experiment on RXF 393 renal were 28.1 µM, greater than 100 µM and greater than 100 µM, respectively.
`O=c1oc2ccccc2c(O)c1C(C/C(CCN1CCCC1)=N\Nc1ccccc1)c1ccccc1` (stereo unspecified): the TGI with NCI-H460 lung, in the experiment on NCI-H226 lung, with SK-MEL-5 melanoma, in the experiment with KM12 colon, in the experiment with OVCAR-8 ovarian and in the experiment with NCI-H522 lung was greater than 100 µM throughout. The results for the TGI with CAKI-1 renal, in the experiment on HT29 colon and in the experiment on RXF 393 renal were greater than 100 µM, greater than 100 µM and 93 µM, respectively.
As to `C=CCn1c(-c2ccc([N+](=O)[O-])cc2)csc1=N`, the TGI in the experiment with NCI-H460 lung, in the experiment with NCI-H226 lung, in the experiment on SK-MEL-5 melanoma, with KM12 colon, in the experiment with OVCAR-8 ovarian and with NCI-H522 lung was greater than 100 µM each time. For the same compound, the TGI with CAKI-1 renal was greater than 100 µM; in the experiment on HT29 colon, greater than 100 µM; with RXF 393 renal, 54.4 µM.
Regarding `CN1CCN(C2=CC(=O)c3c(O)ccc(O)c3C2=O)CC1`, the TGI in the experiment on MOLT-4 leukemia stood at 4.75 µM; in the experiment with NCI-H460 lung, 3.52 µM; in the experiment on NCI-H226 lung, 2.96 µM; with SK-MEL-5 melanoma, 0.325 µM; in the experiment with KM12 colon, 3.59 µM; in the experiment on NCI-H522 lung, 3.17 µM. For the same compound, the TGI with CAKI-1 renal turned out to be 3.08 µM; in the experiment on HT29 colon, 0.946 µM; in the experiment with RXF 393 renal, 2.93 µM.
